The source made the active and inactive calls. No cut-off for these calls is given here.
Legend:
Plasma [1] = test: Anticoagulant activity in citrated human plasma assessed as prolongation of activated partial thromboplastin time at 1 uM incubated for 3 mins by aPTT reagent based automated coagulometric analysis relative to control; format: functional; conditions: 0.05 h
[2] = Metabolic stability in human liver microsome assessed as half life; format: ADME; conditions: liver microsomes
Plasma kallikrein = Plasma kallikrein (Homo sapiens, UniProt P03952); test: Inhibition of PKal (unknown origin) using H-D-Pro-Phe-Arg-pNA.2HCl as substrate incubated for 30 mins followed by substrate addition and measured after 60 mins by microplate reader analysis
Sequence of Plasma kallikrein (P03952 20-390 limits assumed): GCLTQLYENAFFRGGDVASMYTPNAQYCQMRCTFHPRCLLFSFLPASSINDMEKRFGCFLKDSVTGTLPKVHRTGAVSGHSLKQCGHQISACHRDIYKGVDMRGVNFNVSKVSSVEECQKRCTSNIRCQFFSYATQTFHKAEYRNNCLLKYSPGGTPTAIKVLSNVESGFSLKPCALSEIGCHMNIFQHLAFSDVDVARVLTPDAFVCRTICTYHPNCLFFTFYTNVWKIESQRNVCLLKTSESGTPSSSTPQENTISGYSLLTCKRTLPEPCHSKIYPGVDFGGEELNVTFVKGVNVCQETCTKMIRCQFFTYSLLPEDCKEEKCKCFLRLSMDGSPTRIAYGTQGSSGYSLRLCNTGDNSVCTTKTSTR
Sequence of Plasma kallikrein (P03952 391-638 limits assumed): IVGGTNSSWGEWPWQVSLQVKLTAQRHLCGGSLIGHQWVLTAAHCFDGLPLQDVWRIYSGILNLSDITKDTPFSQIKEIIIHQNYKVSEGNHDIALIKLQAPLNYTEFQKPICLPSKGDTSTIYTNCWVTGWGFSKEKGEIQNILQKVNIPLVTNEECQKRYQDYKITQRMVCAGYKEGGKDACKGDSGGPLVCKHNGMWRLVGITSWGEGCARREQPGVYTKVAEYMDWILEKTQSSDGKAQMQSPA

Coagulation factor XII = target: T1, Coagulation factor XII (Homo sapiens, UniProt P00748); test: Inhibition of FXIIa (unknown origin) using H-D-ProPhe-Arg-pNA.2HCl as substrate incubated for 30 mins followed by substrate addition and measured after 60 mins by microplate reader analysis
T1 sequence (P00748 whole entry): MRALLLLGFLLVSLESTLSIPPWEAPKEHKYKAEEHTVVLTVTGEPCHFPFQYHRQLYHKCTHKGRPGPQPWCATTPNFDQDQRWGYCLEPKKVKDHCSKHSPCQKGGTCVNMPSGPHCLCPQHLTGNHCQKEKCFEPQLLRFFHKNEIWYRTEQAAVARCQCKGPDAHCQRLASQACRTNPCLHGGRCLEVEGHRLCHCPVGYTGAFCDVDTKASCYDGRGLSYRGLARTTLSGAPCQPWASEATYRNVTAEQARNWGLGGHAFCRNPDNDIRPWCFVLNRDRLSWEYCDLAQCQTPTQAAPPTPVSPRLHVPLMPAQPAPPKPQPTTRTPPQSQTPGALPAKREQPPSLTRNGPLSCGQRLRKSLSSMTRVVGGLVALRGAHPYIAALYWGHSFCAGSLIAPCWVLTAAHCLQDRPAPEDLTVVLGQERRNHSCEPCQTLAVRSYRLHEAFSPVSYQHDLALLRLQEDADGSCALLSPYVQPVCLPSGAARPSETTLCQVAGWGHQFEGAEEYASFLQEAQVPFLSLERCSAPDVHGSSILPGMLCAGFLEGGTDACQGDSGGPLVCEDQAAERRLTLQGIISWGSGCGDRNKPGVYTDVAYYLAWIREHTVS

Prothrombin = Prothrombin (Homo sapiens, UniProt P00734); test: Inhibition of thrombin (unknown origin) using H-D-Phe-Pip-Arg-pNA.2HCl as substrate incubated for 30 mins followed by substrate addition and measured after 60 mins by microplate reader analysis
Coagulation factor X = Coagulation factor X (Homo sapiens, UniProt P00742); test: Inhibition of FXa (unknown origin) using Z-D-Arg-Gly-Arg-pNA.2HCl as substrate incubated for 30 mins followed by substrate addition and measured after 60 mins by microplate reader analysis
Sequence of Coagulation factor X (P00742 41-179 limits assumed): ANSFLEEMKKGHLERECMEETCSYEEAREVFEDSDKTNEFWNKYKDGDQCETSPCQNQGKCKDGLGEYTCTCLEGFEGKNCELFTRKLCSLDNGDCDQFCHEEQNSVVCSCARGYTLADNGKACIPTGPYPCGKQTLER
Sequence of Coagulation factor X (P00742 235-488 limits assumed): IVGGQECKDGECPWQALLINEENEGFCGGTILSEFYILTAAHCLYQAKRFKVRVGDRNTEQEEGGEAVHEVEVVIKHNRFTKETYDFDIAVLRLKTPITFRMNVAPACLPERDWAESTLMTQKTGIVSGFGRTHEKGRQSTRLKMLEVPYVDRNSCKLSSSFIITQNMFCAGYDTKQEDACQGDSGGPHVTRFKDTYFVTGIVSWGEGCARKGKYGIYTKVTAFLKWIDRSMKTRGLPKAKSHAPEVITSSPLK

Trypsin = Trypsin (Homo sapiens, UniProt P07477+P07478+P35030); test: Inhibition of trypsin (unknown origin) using Bz-Ile-Glu(gamma-OR)-Gly-Arg-pNA.HCl as substrate incubated for 30 mins followed by substrate addition and measured after 60 mins by microplate reader analysis; format: protein assay
[3] = Cytotoxicity against human AC16 [Human hybrid] cells assessed as reduction in cell viability at 1 to 50 uM incubated for 24 hrs by MTT assay; format: toxicity, cell-based; conditions: dose 1-50 µM
Mus musculus [4] = test: Antithrombotic activity in FeCl3-induced carotid arterial thrombosis C57BL/6J mouse model assessed as increase in blood flow velocity at 10 mg/kg, po measured after 0.5 to 4 hrs; format: functional, organism-based; conditions: time 0.5-4 hrs
Mus musculus [5] = test: Antithrombotic activity in po dosed FeCl3-induced carotid arterial thrombosis C57BL/6J mouse model assessed as increase in peak velocity measured after 0.5 hrs; format: functional, organism-based; conditions: dose 5-30 mg/kg
Oryctolagus cuniculus [6] = test: Antithrombotic activity in FeCl3-induced carotid arterial thrombosis male New Zealand white rabbits model assessed as reduction in wet thrombus weight at 2 mg/kg, iv preincubated for 30 mins followed by FeCl3 application for 5 mins and measured after 30 mins relative to control; format: functional; design: scale not given: the % may be the effect or the level left; conditions: time 65 min, 1.083 h
[7] = Toxicity in male New Zealand white rabbit assessed as prolongation of bleeding time at 2 to 6 mg/kg, iv by ear bleeding assay; format: organism-based, Oryctolagus cuniculus; conditions: in vivo, dose 2-6 mg/kg
[8] = Acute toxicity in C57BL/6J mouse assessed as anaphylaxis response at 60 to 100 mg/kg, po administered as single dose for 14 days; format: organism-based; conditions: in vivo, 336 h, dose 60-100 mg/kg, time 14 day
[9] = Acute toxicity in C57BL/6J mouse assessed as allergic reactions at 60 to 100 mg/kg, po administered as single dose for 14 days; format: organism-based; conditions: in vivo, 336 h, dose 60-100 mg/kg, time 14 day
[10] = Acute toxicity in C57BL/6J mouse assessed as pathological changes in liver at 60 to 100 mg/kg, po administered as single dose for 14 days by H and E staining based analysis; format: organism-based; conditions: in vivo, 336 h, dose 60-100 mg/kg, time 14 day
[11] = Acute toxicity in C57BL/6J mouse assessed as pathological changes in kidney at 60 to 100 mg/kg, po administered as single dose for 14 days by H and E staining based analysis; format: organism-based; conditions: in vivo, 336 h, dose 60-100 mg/kg, time 14 day
[12] = Acute toxicity in C57BL/6J mouse assessed as effect on serum ALP level at 60 to 100 mg/kg, po administered as single dose for 14 days; format: organism-based; conditions: in vivo, 336 h, dose 60-100 mg/kg, time 14 day
Oryctolagus cuniculus [13] = test: Antithrombotic activity in FeCl3-induced carotid arterial thrombosis male New Zealand white rabbits model assessed as reduction in dry thrombus weight at 6 mg/kg, iv preincubated for 30 mins followed by FeCl3 application for 5 and measured after 45 mins relative to control; format: functional, organism-based; conditions: time 80.0 min
[14] = Apparent permeability in MDCK-MDR1 cells; format: ADME, cell-based, Canis lupus familiaris; conditions: dog
Plasma [15] = test: Anticoagulant activity in mouse plasma assessed as prolongation of activated partial thromboplastin time incubated for 3 mins by aPTT reagent based automated coagulometric analysis; format: functional; conditions: 0.05 h
[16] = Selectivity index, ratio of IC50 for inhibition of FXIIa (unknown origin) using H-D-ProPhe-Arg-pNA.2HCl as substrate to IC50 for inhibition of human FXIa using p-Glu-Pro-Arg-pNA.HCl as substrate
[17] = Selectivity index, ratio of IC50 for inhibition of FXa (unknown origin) using Z-D-Arg-Gly-Arg-pNA.2HCl as substrate to IC50 for inhibition of human FXIa using p-Glu-Pro-Arg-pNA.HCl as substrate
[18] = Selectivity index, ratio of IC50 for inhibition of tPA (unknown origin) using H-D-Ile-Pro-Arg-pNA-2HCl as substrate to IC50 for inhibition of human FXIa using p-Glu-Pro-Arg-pNA.HCl as substrate
Mus musculus [19] = test: In vivo inhibition of FXIa in FeCl3-induced carotid arterial thrombosis C57BL/6J mouse model assessed as decrease in FXIa level in plasma at 5 to 30 mg/kg, po measured after 0.5 hrs by ELISA; format: functional, organism-based; conditions: dose 5-30 mg/kg
[20] = Acute toxicity in C57BL/6J mouse assessed as effect on spleen weight at 60 to 100 mg/kg, po measured after 24 hrs; format: organism-based; conditions: in vivo, dose 60-100 mg/kg
[21] = Acute toxicity in C57BL/6J mouse assessed as effect on serum alanine transaminase level at 60 to 100 mg/kg, po measured after 24 hrs; format: organism-based; conditions: in vivo, dose 60-100 mg/kg

COc1cn(Cc2cc(-c3ccc(N)nc3F)ccn2)c(=O)cc1-c1cc(Cl)ccc1-n1cnnn1
Activity (Plasma [1]): 247.3%
half-life [2]: > 3 h
IC50 (Plasma kallikrein): 0.222 µM
IC50 (Coagulation factor XII): > 1 µM
IC50 (Prothrombin): > 1 µM
IC50 (Coagulation factor X): > 1 µM
IC50 (Trypsin): > 1 µM
Activity [3]: Non-toxic
Activity (Mus musculus [4]): Active
Activity (Mus musculus [5]): Dose-dependent-effect
Activity (Oryctolagus cuniculus [6]): >50%
Activity [7]: Non-toxic
Activity [8]: Non-toxic
Activity [9]: Non-toxic
Activity [10]: Non-toxic
Activity [11]: Non-toxic
Activity [12]: Non-toxic
Activity (Oryctolagus cuniculus [13]): Active
Papp [14]: 5 nm/s
EC1.5 (Plasma [15]): 1.6 µM
Ratio IC50 [16]: > 1000
Ratio IC50 [17]: > 1000
Ratio IC50 [18]: > 1000
inhibition (Mus musculus [19]): Active
Activity [20]: Non-toxic
Activity [21]: Non-toxic
